Test results from publication PMC7490411 (Signal Transduction and Targeted Therapy, 2020).

How the values were obtained:
Assay in all cases: KINOMEscan
Format in all cases: binding
Details in all cases: 1000 nM
AAK1 = system: AAK1
[1] = system: ABL1(E255K)-phosphorylated
AKT1 = system: AKT1
AKT2 = system: AKT2
ALK = system: ALK
AURKC = system: AURKC
AXL = system: AXL
CDK4-cyclinD3 = system: CDK4-cyclinD3
CDKL3 = system: CDKL3
CHEK1 = system: CHEK1
CLK1 = system: CLK1
CSNK1D = system: CSNK1D
CSNK1G1 = system: CSNK1G1
CSNK1G2 = system: CSNK1G2
DYRK1A = system: DYRK1A
EGFR(G719C) = system: EGFR(G719C)
[2] = system: EGFR(L747-S752del, P753S)
EGFR(L858R,T790M) = system: EGFR(L858R,T790M)
EPHA8 = system: EPHA8
EPHB3 = system: EPHB3
FGFR2 = system: FGFR2
FLT3(D835V) = system: FLT3(D835V)
GCN2(Kin.Dom.2,S808G) = system: GCN2(Kin.Dom.2,S808G)
GRK1 = system: GRK1
HPK1 = system: HPK1
IKK-alpha = system: IKK-alpha
KIT(D816V) = system: KIT(D816V)
MEK5 = system: MEK5
MKNK2 = system: MKNK2
PAK6 = system: PAK6
PFPK5(P.falciparum) = system: PFPK5(P.falciparum)
PIP5K1A = system: PIP5K1A
PIP5K2B = system: PIP5K2B
PRKG1 = system: PRKG1
PRKG2 = system: PRKG2
RAF1 = system: RAF1
RET(V804M) = system: RET(V804M)
[3] = system: RSK2(Kin.Dom.2-C-terminal)
SBK1 = system: SBK1
TGFBR1 = system: TGFBR1
TIE2 = system: TIE2
TRKA = system: TRKA
[4] = system: TYK2(JH2domain-pseudokinase)
WEE1 = system: WEE1
ZAP70 = system: ZAP70

## C=CC(=O)Nc1cc(Nc2cc(-c3cccc(NC(=O)c4cc5c(s4)CCCC5)c3C)cn(C)c2=O)ccc1N1CCN(CC)CC1 [CHMFL-BTK-85]
AAK1
  Percent Control: 82%
[1]
  Percent Control: 85%
AKT1
  Percent Control: 80%
AKT2
  Percent Control: 88%
ALK
  Percent Control: 86%
AURKC
  Percent Control: 100%
AXL
  Percent Control: 100%
CDK4-cyclinD3
  Percent Control: 88%
CDKL3
  Percent Control: 99%
CHEK1
  Percent Control: 79%
CLK1
  Percent Control: 88%
CSNK1D
  Percent Control: 82%
CSNK1G1
  Percent Control: 95%
CSNK1G2
  Percent Control: 98%
DYRK1A
  Percent Control: 100%
EGFR(G719C)
  Percent Control: 81%
[2]
  Percent Control: 100%
EGFR(L858R,T790M)
  Percent Control: 99%
EPHA8
  Percent Control: 91%
EPHB3
  Percent Control: 100%
FGFR2
  Percent Control: 77%
FLT3(D835V)
  Percent Control: 11%
GCN2(Kin.Dom.2,S808G)
  Percent Control: 75%
GRK1
  Percent Control: 84%
HPK1
  Percent Control: 85%
IKK-alpha
  Percent Control: 100%
KIT(D816V)
  Percent Control: 71%
MEK5
  Percent Control: 100%
MKNK2
  Percent Control: 100%
PAK6
  Percent Control: 100%
PFPK5(P.falciparum)
  Percent Control: 100%
PIP5K1A
  Percent Control: 96%
PIP5K2B
  Percent Control: 100%
PRKG1
  Percent Control: 93%
PRKG2
  Percent Control: 95%
RAF1
  Percent Control: 88%
RET(V804M)
  Percent Control: 68%
[3]
  Percent Control: 99%
SBK1
  Percent Control: 100%
TGFBR1
  Percent Control: 88%
TIE2
  Percent Control: 84%
TRKA
  Percent Control: 86%
[4]
  Percent Control: 100%
WEE1
  Percent Control: 100%
ZAP70
  Percent Control: 100%
